Laboratory results from patent US20080194696A1 (priority 2006, published 2008).
Like-named read-outs stand apart in the source and are kept apart here.

How the values were obtained:
Format in all cases: biochemical
dopamine (DA) transport [1] = target: T1, dopamine (DA) transport (Rattus norvegicus, UniProt P23977); test: Inhibition of [3H]DA uptake in rat striatum synaptosomes; design: synaptosomal preparations were made from either whole brain (5-HT), striatum (DA) or hypothalamus (NE); from tissue; host or cells: rat striatum synaptosomes; conditions: for inhibition at 0.5 µM: read-out: Uptake Inhibition % at 500 nM DA; for Uptake Inhibition % at 500 nM DA: 500 nM test compound, 15 min at 37° C.
Protocol: (§1) The effects of arylbicyclo[3.1.0]hexylamines of the invention for inhibiting transport of norepinephrine (NE) and/or dopamine (DA) and/or serotonin (5-HT) were evaluated using preparations of synaptosomes from different regions of the rat brain according to previously-reported techniques.
(§2) Whole brains were obtained from normal rats, and synaptosomal preparations were made from either whole brain (5-HT), striatum (DA) or hypothalamus (NE) by gentle disruption in 10 volumes (w/v) of 0.32 M sucrose (0-4° C.) using a Teflon-glass homogenizer. The homogenate was then centrifuged at 1000×g for 10 min. The supernatant was retained and centrifuged at 23000 g for 20 min. The resulting pellet was gently resuspended in 200 volumes of 0.32 M sucrose (0-4° C.) using a teflon-glass homogenizer. Aliquots (250 μL) of this preparation were added to tubes, along with 0.2 μCi/mL of [^3H]5-HT, [^3H]DA, or [^3H]NE, 200 μL of selected 1-arylbicyclo[3.1.0]hexanamine test compounds ([…]) and 1 mL of Krebs-Ringer bicarbonate buffer (pH 7.4). […] At the end of this period, the assay was terminated by rapid filtration over Whatman GF/C glass fiber filters. The filters were rinsed 3 times with 4 ml of Krebs-Ringer bicarbonate buffer (0-4° C.), and the radioactivity retained on the filters was measured by liquid scintillation spectrometry.
Target sequence in this assay (P23977 whole entry): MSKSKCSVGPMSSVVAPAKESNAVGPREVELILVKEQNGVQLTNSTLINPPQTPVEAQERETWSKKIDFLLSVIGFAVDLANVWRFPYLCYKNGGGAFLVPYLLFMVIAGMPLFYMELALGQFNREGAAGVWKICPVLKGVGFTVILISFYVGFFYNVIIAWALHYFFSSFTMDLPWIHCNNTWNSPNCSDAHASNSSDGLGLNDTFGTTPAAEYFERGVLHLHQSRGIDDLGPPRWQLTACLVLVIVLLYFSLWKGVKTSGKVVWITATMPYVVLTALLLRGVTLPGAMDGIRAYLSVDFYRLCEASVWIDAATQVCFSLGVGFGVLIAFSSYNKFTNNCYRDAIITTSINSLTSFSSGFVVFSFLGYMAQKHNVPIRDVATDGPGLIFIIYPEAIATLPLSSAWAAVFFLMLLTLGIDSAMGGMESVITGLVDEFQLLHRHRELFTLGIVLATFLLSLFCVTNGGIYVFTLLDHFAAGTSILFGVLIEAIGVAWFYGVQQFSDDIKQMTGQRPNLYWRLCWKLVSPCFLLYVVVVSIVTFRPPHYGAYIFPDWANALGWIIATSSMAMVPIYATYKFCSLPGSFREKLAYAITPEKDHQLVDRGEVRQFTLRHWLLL

[2] = target: T2, norepinephrine (NE) transport (Rattus norvegicus, UniProt Q63380); test: Inhibition of [3H]NE uptake in rat hypothalamus synaptosomes; conditions: for inhibition at 0.5 µM: read-out: Uptake Inhibition % at 500 nM NE; for Uptake Inhibition % at 500 nM NE: 500 nM test compound, rat hypothalamus synaptosomes, [3H]NE, 20 min at 37° C.
T2 construct: synaptosomal preparations were made from either whole brain (5-HT), striatum (DA) or hypothalamus (NE); from tissue; host or cells: rat hypothalamus synaptosomes
Protocol: as §1
(§3) Whole brains were obtained from normal rats, and synaptosomal preparations were made from either whole brain (5-HT), striatum (DA) or hypothalamus (NE) by gentle disruption in 10 volumes (w/v) of 0.32 M sucrose (0-4° C.) using a Teflon-glass homogenizer. The homogenate was then centrifuged at 1000×g for 10 min. The supernatant was retained and centrifuged at 23000 g for 20 min. The resulting pellet was gently resuspended in 200 volumes of 0.32 M sucrose (0-4° C.) using a teflon-glass homogenizer. Aliquots (250 μL) of this preparation were added to tubes, along with 0.2 μCi/mL of [^3H]5-HT, [^3H]DA, or [^3H]NE, 200 μL of selected 1-arylbicyclo[3.1.0]hexanamine test compounds (to yield final concentrations of 500 nM) and 1 mL of Krebs-Ringer bicarbonate buffer (pH 7.4). […] At the end of this period, the assay was terminated by rapid filtration over Whatman GF/C glass fiber filters. The filters were rinsed 3 times with 4 ml of Krebs-Ringer bicarbonate buffer (0-4° C.), and the radioactivity retained on the filters was measured by liquid scintillation spectrometry.

[3] = target: T3, serotonin (5-HT) transport (Rattus norvegicus, UniProt P31652); test: Inhibition of [3H]5-HT uptake in rat whole brain synaptosomes; conditions: for inhibition at 0.5 µM: read-out: Uptake Inhibition % at 500 nM 5-HT; for Uptake Inhibition % at 500 nM 5-HT: 500 nM test compound, rat whole brain synaptosomes, [3H]5-HT, 15 min at 37° C.
Protocol: as §1, §3

[4] = target: T3, serotonin (5-HT) transport; test: as above
[5] = target: T2, norepinephrine (NE) transport; test: Inhibition of [3H]NE uptake in rat hypothalamus synaptosomes
dopamine (DA) transport [6] = target: T1, dopamine (DA) transport; test: Inhibition of [3H]DA uptake in rat striatum synaptosomes
Protocol: as §1, §2
Target sequence in this assay (P23977 whole entry, looked up): as the sequence (P23977 whole entry) above

[7] = rat striatum synaptosomes, [3H]DA
[8] = rat striatum synaptosomes, [3H]DA, read-out: Uptake IC50 (nM) DA

T3 sequence (P31652 whole entry): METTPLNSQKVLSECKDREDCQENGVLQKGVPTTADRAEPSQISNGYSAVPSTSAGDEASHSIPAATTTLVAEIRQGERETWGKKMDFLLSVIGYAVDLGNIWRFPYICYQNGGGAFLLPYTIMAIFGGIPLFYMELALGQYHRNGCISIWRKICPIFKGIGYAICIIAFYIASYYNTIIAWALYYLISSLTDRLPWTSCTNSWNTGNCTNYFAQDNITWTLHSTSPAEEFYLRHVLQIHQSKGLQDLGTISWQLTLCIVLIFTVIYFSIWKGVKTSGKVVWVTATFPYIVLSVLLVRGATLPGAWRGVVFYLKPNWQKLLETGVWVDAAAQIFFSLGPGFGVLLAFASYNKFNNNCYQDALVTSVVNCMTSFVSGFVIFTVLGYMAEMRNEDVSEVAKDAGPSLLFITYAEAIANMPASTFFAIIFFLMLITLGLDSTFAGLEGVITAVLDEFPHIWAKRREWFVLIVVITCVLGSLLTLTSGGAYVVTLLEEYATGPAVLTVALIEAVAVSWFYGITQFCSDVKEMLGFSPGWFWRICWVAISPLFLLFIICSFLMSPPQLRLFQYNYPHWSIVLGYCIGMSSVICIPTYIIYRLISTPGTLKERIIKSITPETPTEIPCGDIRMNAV
T2 sequence (Q63380 1-617): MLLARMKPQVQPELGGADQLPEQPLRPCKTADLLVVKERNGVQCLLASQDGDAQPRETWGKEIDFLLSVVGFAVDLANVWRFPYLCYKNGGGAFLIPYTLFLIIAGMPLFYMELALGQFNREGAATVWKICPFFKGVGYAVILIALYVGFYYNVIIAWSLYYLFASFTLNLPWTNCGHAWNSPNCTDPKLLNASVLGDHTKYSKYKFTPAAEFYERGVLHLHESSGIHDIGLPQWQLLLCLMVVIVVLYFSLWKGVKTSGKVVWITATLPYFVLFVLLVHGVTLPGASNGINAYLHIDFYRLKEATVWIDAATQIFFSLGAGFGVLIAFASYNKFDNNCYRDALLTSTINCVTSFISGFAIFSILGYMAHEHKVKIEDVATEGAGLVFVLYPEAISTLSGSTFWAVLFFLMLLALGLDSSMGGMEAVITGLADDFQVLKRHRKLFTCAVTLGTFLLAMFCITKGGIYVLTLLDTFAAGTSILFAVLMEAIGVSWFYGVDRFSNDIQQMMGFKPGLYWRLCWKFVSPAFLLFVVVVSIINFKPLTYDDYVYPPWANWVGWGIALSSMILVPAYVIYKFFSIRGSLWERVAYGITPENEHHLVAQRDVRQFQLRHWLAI

| Compound | inhibition at 0.5 µM (dopamine (DA) transport [1]) [%] | inhibition at 0.5 µM [2] [%] | inhibition at 0.5 µM [3] [%] | further results |
| --- | --- | --- | --- | --- |
| CNC1CCC2(c3ccc(Cl)c(Cl)c3)CC12 (stereo not shown) | 56 | 63 | 94 | IC50 (dopamine (DA) transport [1]): 360 nM; IC50 [2]: 444 nM; IC50 [3]: 75 nM |
| Cc1ccc(C23CC2CCC3N(C)C)cc1 (stereo not shown) [N,N-dimethyl-1-p-tolylbicyclo[3.1.0]hexan-2-amine] | 70 | 71 | 0 | IC50 (dopamine (DA) transport [1]): 335 nM; IC50 [2]: 2090 nM; IC50 [3]: > 5000 nM |
| CN(C)C1CCC2(c3cccc4ccccc34)CC12 (stereo not shown) | 15 | 25 | 76 | – |
| CNC1CCC2CC21c1ccc(C)cc1 (stereo not shown) [N-methyl-1-p-tolylbicyclo[3.1.0]hexan-2-amine] | 33 | 8 | 4 | – |
| Cc1ccc(C23CCC(N(C)C)C2C3)cc1 (stereo not shown) | 55 | 57 | 44 | – |
| Cc1ccc(C23CC2CCC3N)cc1 (stereo not shown) [1-p-tolylbicyclo[3.1.0]hexan-2-amine] | 18 | 14 | 20 | – |
| CN(C)C1CCC2CC21c1ccc(Cl)c(Cl)c1 (stereo not shown) [1-(3,4-dichlorophenyl)-N,N-dimethylbicyclo[3.1.0]hexan-2-amine] | 99 | 96 | 38 | IC50 (dopamine (DA) transport [1]): 9 nM; IC50 [2]: 11 nM; IC50 [3]: 1240 nM |
| NC1C[C@@H]2C[C@]2(c2ccc(Cl)c(Cl)c2)C1 (stereo partly shown) | 83 | 59 | 75 | – |
| 5-p-tolylbicyclo[3.1.0]hexan-2-amine | – | – | – | Uptake Inhibition % at 500 nM DA (dopamine (DA) transport [1]; [7]): 39%; Uptake Inhibition % at 500 nM NE [2]: 42%; Uptake Inhibition % at 500 nM 5-HT [3]: 74% |
| NC1CC2CC2(c2ccc(Cl)c(Cl)c2)C1 (stereo not shown) [1-(3,4-dichlorophenyl)bicyclo[3.1.0]hexan-3-amine] | 77 | 76 | 89 | IC50 (dopamine (DA) transport [1]; [8]): 111 nM; IC50 [4]: 38 nM; IC50 [5]: 126 nM |
| Cc1ccc(C23CC(N)CC2C3)cc1 (stereo not shown) [1-p-tolylbicyclo[3.1.0]hexan-3-amine] | 44 | 38 | 21 | – |
| NC1C[C@H]2C[C@@]2(c2cccc3ccccc23)C1 (stereo partly shown) | 53 | 76 | 65 | IC50 (dopamine (DA) transport [1]; [8]): 496 nM; IC50 [4]: 425 nM; IC50 [5]: 282 nM |
| CNC1CCC2(c3ccc4ccccc4c3)CC12 (stereo not shown) | 45 | 47 | 90 | – |
| N-methyl-5-p-tolylbicyclo[3.1.0]hexan-2-amine | – | – | – | Uptake Inhibition % at 500 nM DA (dopamine (DA) transport [1]; [7]): 23%; IC50 (dopamine (DA) transport [1]; [8]): 8730 nM; Uptake Inhibition % at 500 nM NE [2]: 81%; Uptake Inhibition % at 500 nM 5-HT [3]: 82%; IC50 [4]: 76 nM; IC50 [5]: 74 nM |
| CNC1CCC2(c3cccc4ccccc34)CC12 (stereo not shown) | 29 | 49 | 90 | – |
| CNC1CCC2(c3ccc(C)cc3)CC12 (stereo not shown) | 63 | 89 | 37 | IC50 (dopamine (DA) transport [1]): 858 nM; IC50 [2]: 313 nM; IC50 [3]: 1190 nM |
| CNC1CC2CC2(c2ccc(C)cc2)C1 (stereo not shown) [N-methyl-1-p-tolylbicyclo[3.1.0]hexan-3-amine] | 43 | 73 | 69 | – |
| NC1C[C@H]2C[C@@]2(c2ccc(Cl)c(Cl)c2)C1 (stereo partly shown) | – | – | – | IC50 (dopamine (DA) transport [6]): 60 nM |
| CNC1CCC2CC21c1ccc(Cl)c(Cl)c1 (stereo not shown) [1-(3,4-dichlorophenyl)-N-methylbicyclo[3.1.0]hexan-2-amine] | 101 | 94 | 15 | IC50 (dopamine (DA) transport [1]): 3 nM; IC50 [2]: 18 nM; IC50 [4]: 3680 nM |
| Cc1ccc(C23CC(N(C)C)CC2C3)cc1 (stereo not shown) [N,N-dimethyl-1-p-tolylbicyclo[3.1.0]hexan-3-amine] | 0 | 50 | 66 | – |
| CN(C)C1CCC2(c3ccc(Cl)c(Cl)c3)CC12 (stereo not shown) | 34 | 29 | 95 | – |
| CN(C)C1CCC2(c3ccc4ccccc4c3)CC12 (stereo not shown) | 42 | 26 | 96 | – |
| NC1CCC2CC12c1ccc(Cl)c(Cl)c1 (stereo not shown) [1-(3,4-dichlorophenyl)bicyclo[3.1.0]hexan-2-amine] | 86 | 34 | 5 | – |
| Cc1ccc(C23CCC(N)C2C3)cc1 (stereo not shown) | 31 | 50 | 25 | – |
